Reference: patent publication US11046640B2, “Water-soluble L-DOPA esters” (BERLIREM GMBH, priority 2015, dated 2021)
≈ marks a conversion by molar mass, not a printed value. Blank lines part the entries; values can stand above or below the compound they belong to.

Key:
[1] = Solubility in water; assay type: physicochemical; details: for solubility in water: hydrochloride salt; for Aqueous solubility: water
Protocol: 40 mg of lyophilized L-DOPA glycerol ester hydrochloride was dissolved in 20 μl of water resulting in a viscous liquid. The aqueous solubility of L-DOPA glycerol ester hydrochloride is ≥2 g/ml.

[2] = Hydrolytic stability at selected pH values (TLC); assay type: physicochemical
Protocol: Each 20 mg of lyophilized L-DOPA glycerol ester hydrochloride as well as L-DOPA ethyl ester hydrochloride were dissolved in 250 μl of buffer solution which was de-gassed for 5 min under argon.
The ester solutions were stored at 32° C.

[3] = molecular target: T1, carboxylesterase 1 (isoform c, human, recombinant) (Homo sapiens, UniProt P23141); experiment: Enzymatic ester cleavage using isolated carboxylesterase; assay type: in vitro ADME
T1 construct: purchased Sigma-Aldrich, Munich, Germany
T1 sequence (P23141 18-566 isoform P23141-3 limits assumed): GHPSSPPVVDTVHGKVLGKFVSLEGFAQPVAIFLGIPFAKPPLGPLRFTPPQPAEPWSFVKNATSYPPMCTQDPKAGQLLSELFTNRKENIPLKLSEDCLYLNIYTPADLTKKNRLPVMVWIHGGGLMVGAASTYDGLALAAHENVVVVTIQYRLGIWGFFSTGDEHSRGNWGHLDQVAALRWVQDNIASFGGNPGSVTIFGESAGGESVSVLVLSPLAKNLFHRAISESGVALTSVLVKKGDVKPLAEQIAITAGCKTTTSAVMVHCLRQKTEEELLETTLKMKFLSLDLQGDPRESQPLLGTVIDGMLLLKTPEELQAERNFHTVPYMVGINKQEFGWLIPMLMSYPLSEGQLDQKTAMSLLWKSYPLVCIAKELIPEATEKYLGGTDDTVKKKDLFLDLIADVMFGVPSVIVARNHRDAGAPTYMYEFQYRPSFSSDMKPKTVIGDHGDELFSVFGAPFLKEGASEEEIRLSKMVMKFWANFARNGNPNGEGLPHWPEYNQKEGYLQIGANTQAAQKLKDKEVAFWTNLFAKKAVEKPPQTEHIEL
Protocol: Enzymatic Ester Cleavage Using Isolated Carboxylesterase
Afterwards 5 μl carboxylestaerase 1 (isoform c, human, recombinant (Sigma-Aldrich, Munich, Germany)) with activity 1000 units/mg protein (concentration: 5 mg/ml) was added. The mixture was incubated for 60 and 180 min at 37° C.

[4] = cited from earlier work

- solubility in water [1]: up to 400 mg/ml
- Aqueous solubility [1]: 400 mg/mL
- Stability (days at pH 7.4, Soerensen buffer) [2]: 2 days
- Time to complete hydrolysis (min) (with carboxylesterase) [3]: 60 min
Structure (SMILES): CCOC(=O)[C@@H](N)Cc1ccc(O)c(O)c1.Cl [Ethyl-Dopa•HCl, L-DOPA ethyl ester hydrochloride]

- Aqueous solubility ([1]; hydrochloride): 2000 mg/mL
- Aqueous solubility ([1]; listed as L-DOPA glycerol ester hydrochloride, hydrochloride): ≥ 2000 mg/mL
- hydrolytic stability ([2]; all pH values (1, 4.5, 7.4, 8.5), 32° C., over 14 days): stable
- Stability (days at pH 7.4, Soerensen buffer) [2]: 14 days
- Time to complete hydrolysis (min) (with carboxylesterase) [3]: >60 min
- ester remaining ([3]; carboxylesterase 1, 37° C., after 180 min): only traces
Structure (SMILES): Cl.N[C@@H](Cc1ccc(O)c(O)c1)C(=O)OCC(O)CO (stereo partly drawn) [Gly-Dopa•HCl, L-DOPA glycerol ester hydrochloride]

- solubility in water [1]: 400 mg/mL
- time within which the ester is cleaved ([2]; pH 7.4, 32° C.): ≤ 2 days
- time within which the ester is cleaved ([2]; pH 8.5, 32° C.): ≤ 2 days
- hydrolytic stability ([2]; pH=1, 32° C., over measured time period): stable
- time within which the ester is cleaved ([2]; pH=4.5, 32° C.): ≤ 14 days
- ester cleavage ([3]; carboxylesterase 1, 37° C., after 60 min): complete
Structure (SMILES): CCOC(=O)[C@@H](N)Cc1ccc(O)c(O)c1 [L-DOPA ethyl ester]
- solubility ([4]; at pH 8.2, free base, US 6,696,600 B2): 52 mg/mL (≈ 231 mM)

Structure (SMILES): N[C@@H](Cc1ccc(O)c(O)c1)C(=O)O [L-DOPA, L-3,4-Dihydroxyphenylalanin]
- water solubility ([4]; reported, Fernandez & Odin 2011): 20 mg/mL (≈ 101 mM)
